{"source": "patent US20250268840A1", "about": "“USE OF NANO-CARRIERS FOR DELIVERY OF ACTIVE AGENTS” (LANDA LABS (2012) LTD., priority 2022, published 2025)", "key": {"[1]": {"test": "Thermo-rheometer viscosity of WITC (PCL), unplasticized or blended with plasticizing agents / premixes", "assay_type": "physicochemical", "protocol": "Thermo-rheometer: Thermo Scientific (Germany) Haake Mars III, with a C20/1° spindle, a gap of 0.052 mm, and a shear rate of 10 sec^−1. […]\nSamples corresponding to the above-described premixes were additionally tested for their viscosity at the end of the mixing step, when the WITCs were at least homogeneously blended with the polar-carrier-insoluble materials, and in most case plasticized by the non-volatile liquids if present. Viscosity was determined as previously described at a shear rate of 10 sec^−1 over a range of temperatures between 20° C. and 80° C., and for all samples so tested the viscosity as measured at 50° C. was typically found to be of less than 10^6 mPa·s, being generally between 10^3 mPa·s and 10^5 mPa·s, often not exceeding 5×10^4 mPa·s, and many samples even having a viscosity of less 10^4 mPa·s.\nIn a first series of experiments, the viscosity was measured on blends of materials forming a homogeneous mass adapted for nano-sizing by the present methods. PCL and a non-volatile liquid or a fatty amine serving as SFA at various weight per weight ratios were combined in a glass vial and the sealed vials were placed in an oven pre-heated to 80° C. The PCL: non-volatile liquid ratios tested were 1:1 and 1:2.33 and the PCL: fatty amine ratios tested were 1:0.1, 1:0.33, 1:0.5 and 1:1. Following 1 hour of incubation under heat, the contents of the vials were mixed by hand for about 30 seconds, until clear solutions were obtained. The samples were allowed to cool down overnight (i.e., at least 12 hours) at room temperature so as to solidify.\nSolid samples were then transferred to a rheometer where their respective viscosity was measured as a function of temperature between room temperature and 70° C. at a ramping up temperature of 10° C./min. The viscosities (or 2nd viscosities) of the samples as measured at 50° C. and 70° C. are summarized in Table 2-II(A), including in the first row the first viscosities of a reference sample made of PCL alone, unplasticized, under same conditions."}, "[2]": {"test": "Pharmacokinetic study of tadalafil in plasma after oral administration", "assay_type": "in vivo, rats (Sprague Dawley)", "conditions": "rats", "protocol": "The following pharmacokinetic (PK) study was conducted to determine the efficacy of a composition according to the present teachings, following its oral administration to rats.\nNine young adult healthy rats (Sprague Dawley), having an initial mean body weight of about 243.1 +1.8 g, were used in this study. They were individually tail marked and housed within a limited access caged rodent facility. The rats were randomly divided into groups of 3, and were kept with their groups in cages, in a controlled environment at a temperature of 17-23° C., with a relative humidity (RH) of 30-70%, a 12:12 hour light:dark cycle and 15 air changes/h in the study room. […]\nNano-dispersion ND39, as listed in Table 5-II, was used as the tested composition. ND39 contains tadalafil as the polar-carrier insoluble active agent present in the core of the nano-elements, and its concentration in the rats' blood was monitored. […]\nThe plasma samples were combined with acetone, allowing the dissolution of the nano-elements and making the tadalafil available for measuring, followed by centrifugation whereby plasma proteins were precipitated. The obtained supernatant was removed and analyzed by LC-MS/MS vs. a tadalafil calibration curve prepared in advance, in the range of 1 ng/ml to 10 ug/ml. […]"}, "[3]": {"conditions": "PCL:plasticizing agent w/w ratio 1:0.33"}, "[4]": {"conditions": "PCL:plasticizing agent w/w ratio 1:0.5"}, "[5]": {"conditions": "PCL:plasticizing agent w/w ratio 1:1"}, "[6]": {"conditions": "PCL:plasticizing agent w/w ratio 1:2.33"}}}
{"molecule": "CCCCCCCC/C=C\\CCCCCCCCN", "note": "[Oleyl amine]", "values": [{"measurement": "PCL 2nd viscosity at 50° C. [mPa · s]", "setting": "[1]; [3]", "result": "1.9 × 10^3 mPa · s"}, {"measurement": "PCL 2nd viscosity at 70° C. [mPa · s]", "setting": "[1]; [3]", "result": "1.7 × 10^3 mPa · s"}, {"measurement": "PCL 2nd viscosity at 50° C. [mPa · s]", "setting": "[1]; [4]", "result": "6.7 × 10^3 mPa · s"}, {"measurement": "PCL 2nd viscosity at 70° C. [mPa · s]", "setting": "[1]; [4]", "result": "4.4 × 10^3 mPa · s"}]}
{"molecule": "CCCCCCCCN(CCCCCCCC)CCCCCCCC", "note": "[Trioctyl amine]", "values": [{"measurement": "PCL 2nd viscosity at 50° C. [mPa · s]", "setting": "[1]; [5]", "result": 544, "unit": "mPa · s"}, {"measurement": "PCL 2nd viscosity at 70° C. [mPa · s]", "setting": "[1]; [5]", "result": 279, "unit": "mPa · s"}]}
{"molecule": "CN1CC(=O)N2[C@H](c3ccc4c(c3)OCO4)c3[nH]c4ccccc4c3C[C@@H]2C1=O", "note": "[Ref. T, Tadalafil]", "values": [{"measurement": "% CV of plasma tadalafil concentration, average for all time points", "setting": "[2]; 3 animals per time point", "result": 31.1, "unit": "%"}, {"measurement": "AUC0-∞/D (area under curve zero to infinity normalized to dose of tadalafil)", "setting": "[2]; ND39 about 16 mg/kg, Ref. C about 18.7 mg/kg, Ref. T about 18.1 mg/kg", "result": "about 1,249 h.mg/ml"}]}
{"molecule": "CCCCOC(=O)CCCCC(=O)OCCCC", "note": "[Cetiol ® B, Dibutyl adipate]", "values": [{"measurement": "PCL 2nd viscosity at 50° C. [mPa · s]", "setting": "[1]; [5]", "result": "5.0 × 10^3 mPa · s"}, {"measurement": "PCL 2nd viscosity at 70° C. [mPa · s]", "setting": "[1]; [5]", "result": "2.2 × 10^3 mPa · s"}, {"measurement": "PCL 2nd viscosity at 50° C. [mPa · s]", "setting": "[1]; [6]", "result": 215, "unit": "mPa · s"}, {"measurement": "PCL 2nd viscosity at 70° C. [mPa · s]", "setting": "[1]; [6]", "result": 164, "unit": "mPa · s"}]}
